Structures are written as SMILES. pIC50: −log10 of the molar value.

T1 sequence (P22460 whole entry): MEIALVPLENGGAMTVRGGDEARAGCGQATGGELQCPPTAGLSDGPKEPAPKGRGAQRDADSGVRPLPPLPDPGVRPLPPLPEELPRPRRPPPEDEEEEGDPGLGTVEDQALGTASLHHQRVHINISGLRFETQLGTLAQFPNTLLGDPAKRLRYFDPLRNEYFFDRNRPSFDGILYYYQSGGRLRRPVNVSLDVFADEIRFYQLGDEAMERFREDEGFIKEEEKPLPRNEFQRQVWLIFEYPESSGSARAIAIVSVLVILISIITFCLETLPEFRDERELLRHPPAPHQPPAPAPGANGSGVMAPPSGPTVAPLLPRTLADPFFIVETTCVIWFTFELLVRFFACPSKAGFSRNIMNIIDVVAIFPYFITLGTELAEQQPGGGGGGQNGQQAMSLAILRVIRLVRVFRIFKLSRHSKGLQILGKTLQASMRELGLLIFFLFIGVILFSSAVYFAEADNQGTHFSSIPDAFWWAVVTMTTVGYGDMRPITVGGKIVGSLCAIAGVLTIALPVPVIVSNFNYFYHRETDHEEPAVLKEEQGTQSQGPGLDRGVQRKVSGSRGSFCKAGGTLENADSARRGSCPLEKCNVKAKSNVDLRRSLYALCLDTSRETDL

The assay addresses T1, Human Kv1.5 channels (Homo sapiens, UniProt P22460).
T1 construct: expressed in transfected cells; host or cells: Xenopus laevis oocytes injected with RNA synthesized in vitro
As to the kind of experiment: Activity on the Kv1.5 channel: two-microelectrode voltage clamp on Xenopus oocytes expressing Kv1.5. It counts as cell-based. The conditions noted are these: human Kv1.5 expressed in Xenopus oocytes, room temperature, Hill equation; read-out: Kv1.5 IC-50. As to the method: Determination of the Activity on the Kv1.5 Channel
Human Kv1.5 channels were expressed in xenopus oocytes. For this purpose, firstly oocytes were isolated from Xenopus laevis and defolliculated. Kv1.5-encoding RNA synthesized in vitro was then injected into these oocytes. After Kv1.5 protein expression for 1-7 days, Kv1.5 currents were measured on the oocytes using the two-microelectrode voltage clamp technique. The Kv1.5 channels were in this case usually activated with voltage jumps lasting 500 ms to 0 mV and 40 mV. A solution of the following composition flowed through the bath: NaCl 96 mM, KCl 2 mM, CaCl2 1.8 mM, MgCl2 1 mM, HEPES 5 mM (titrated to pH 7.4 with NaOH). These experiments were carried out at room temperature. The following were employed for data acquisition and analysis: Geneclamp amplifier (Axon Instruments, Foster City, USA) and MacLab D/A converter and software (ADInstruments, Castle Hill, Australia). The substances of the invention were tested by adding them in various concentrations to the bath solution. The effects of the substances were calculated as percent inhibition of the Kv1.5 control current which was obtained when no substance was added to the solution. The data were then extrapolated using the Hill equation in order to determine the inhibitory concentrations IC50 for the respective substances.
Consider `CCCO[C@H](c1ccccc1)[C@@H](c1ccccn1)N1CCCC1=O` (racemic) [Example 64], for which the pIC50 is 5.74.

As to `O=C1CCCN1[C@@H](c1cccnc1)[C@H](OCCCC(F)(F)F)c1ccc(F)cc1` (racemic) [Example 65], the pIC50 was 5.82.

With `N#Cc1ccc(O[C@H](c2cccnc2)[C@H](c2cccc3cccnc23)N2CCCC2=O)cc1` (racemic) [Example 66], the pIC50 was 5.64.

As for `CO[C@H](c1ccc(Cl)cc1)[C@H](c1ccccc1)N1CCCCC1=O` (racemic) [Example 67], the pIC50 is 5.92.

Regarding `CCO[C@H](c1ccc(Cl)cc1)[C@H](c1ccccc1)N1CCCC1=O` (racemic) [Example 68], the pIC50 was 6.30.

For `N#Cc1ccc(CO[C@H](c2ccc(F)c(F)c2)[C@H](c2ccc(F)cc2)N2CCCC2=O)cc1` (racemic) [Example 69], the pIC50 is 5.80.

For the compound `O=C1CCCN1[C@@H](c1ccccc1)[C@H](Oc1ccccn1)c1ccccc1` (racemic) [Example 70], the pIC50 was 5.64.

For the compound `CCCO[C@H](c1ccccc1)[C@H](c1ccccn1)N1CCCC1=O` (racemic) [Example 71], the pIC50 is 5.80.

As for `O=C1CCCN1[C@@H](c1ccccc1)[C@H](OCc1ccccc1)c1ccc(Cl)cc1` (racemic) [Example 72], the pIC50 is 5.68.

For `COc1ccc([C@@H](OCC2CC2)[C@H](c2ccc(F)cc2)N2CCCC2=O)cc1` (racemic) [Example 73], the pIC50 was 6.00.

Take `O=C1CCCN1[C@@H](c1ccc(F)cc1)[C@@H](OCC1CC1)c1cccc2cccnc12` (racemic) [Example 75]: the pIC50 is 5.85.

For the compound `CCCO[C@H](c1ccccn1)[C@H](c1ccccc1)N1CCCC1=O` (racemic) [Example 76], the pIC50 is 5.57.

With `CO[C@H](c1ccc(F)cc1)[C@H](c1ccccc1)N1CCCC1=O` (racemic) [Example 77], the pIC50 was 5.57.

As for `CO[C@H](C1CCCCC1)[C@H](c1ccc(F)cc1)N1CCCC1=O` (racemic) [Example 78], the pIC50 is 5.48.

For the compound `CO[C@H](c1ccc(F)cc1)[C@H](c1ccc(F)cc1)N1CCCC1=O` (racemic) [Example 79], the pIC50 is 5.47.

In the case of `O=C1CCCN1[C@@H](c1ccc(F)cc1)[C@H](OCC1CC1)c1ccc(C(F)(F)F)cc1` (racemic) [Example 80], the pIC50 was 5.85.

On to `COc1ccc(CO[C@H](c2ccc(F)c(F)c2)[C@H](c2cccnc2)N2CCCC2=O)cc1` (racemic) [Example 81], for which the pIC50 was 5.49.

Turning to `CO[C@@H](c1ccccc1)[C@H](c1ccccc1)N1CCCC1=O` (racemic) [Example 82], the pIC50 is 5.43.

As for `O=C1CCCN1[C@@H](c1ccc(F)cc1)[C@H](OCC1CC1)C1CCCCC1` (racemic) [Example 83], the pIC50 is 5.74.

As to `O=C1CCCN1[C@@H](c1ccc(F)cc1)[C@@H](OCC1CC1)c1ccnc2ccccc12` (racemic) [Example 84], the pIC50 was 5.62.

For the compound `COc1ccc(CO[C@H](c2cccnc2)[C@H](c2ccc(F)cc2)N2CCCC2=O)cc1` (racemic) [Example 86], the pIC50 is 5.54.

For the compound `CO[C@H](c1ccc(F)c(F)c1)[C@H](c1ccc(F)cc1)N1CCCC1=O` (racemic) [Example 87], the pIC50 is 5.38.

`CO[C@@H](c1ccc(F)cc1)[C@H](c1ccccc1)N1CCCC1=O` (racemic) [Example 88]: the pIC50 is 5.40.

As to `N#Cc1ccc(O[C@@H](c2cccc3ccccc23)[C@H](c2ccc(F)cc2)N2CCCC2=O)cc1` (racemic) [Example 89], the pIC50 was 5.46.

As to `CC1CCC(=O)N1[C@@H](c1ccc(F)cc1)[C@H](Oc1ccc(C#N)cc1)c1ccc(F)c(F)c1` (mixture of isomers) [Example 90], the pIC50 was 5.39.

As to `O=C1CCCN1[C@@H](c1ccccc1)[C@H](OCC1CC1)c1ccncc1` (racemic) [Example 91], the pIC50 was 5.40.

Take `N#Cc1ccc(O[C@H](c2ccc(F)cc2)[C@H](c2ccc(F)cc2)N2CCCC2=O)cc1` (racemic) [Example 92]: the pIC50 is 5.42.

In the case of `O=C1CCCCN1[C@@H](c1ccc(F)cc1)[C@H](OCC1CC1)c1cccc2cccnc12` (racemic) [Example 93], the pIC50 is 5.39.

In the case of `COc1ccc(CO[C@H](c2ccc(F)cc2)[C@@H](c2ccc(F)cc2)N2CCCC2=O)cc1` (racemic) [Example 94], the pIC50 was 5.28.

With `COc1ccc(CO[C@H](c2ccc(F)cc2)[C@@H](c2ccccc2)N2CCCC2=O)cc1` (racemic) [Example 95], the pIC50 is 5.28.

In the case of `N#Cc1ccc(O[C@H](c2ccccc2)[C@H](c2ccccn2)N2CCCC2=O)cc1` (racemic) [Example 96], the pIC50 is 5.29.

`CCCO[C@H](c1ccncc1)[C@H](c1ccccc1)N1CCCC1=O` (racemic) [Example 97]: the pIC50 was 5.27.

Regarding `COc1ccc(CO[C@H](c2ccc(F)cc2)[C@H](c2cccc3cccnc23)N2CCCC2=O)cc1` (racemic) [Example 98], the pIC50 was 5.26.

With `CO[C@H](c1ccc(F)c(F)c1)[C@H](c1ccc(F)cc1)N1CCCCC1=O` (racemic) [Example 99], the pIC50 is 5.20.

In the case of `O=C1CCCN1[C@@H](c1cccnc1)[C@H](OCc1ccc(Cl)cc1)c1ccc(F)c(F)c1` (racemic) [Example 100], the pIC50 was 5.27.

Consider `O=C1CCCN1[C@@H](c1ccc(F)cc1)[C@H](OCc1ccc(Cl)cc1)c1ccc(F)c(F)c1` (racemic) [Example 101], for which the pIC50 was 5.25.

In the case of `N#Cc1ccc(O[C@H](c2ccc(F)c(F)c2)[C@@H](c2ccc(F)cc2)N2CCCC2=O)cc1` (racemic) [Example 102], the pIC50 is 5.27.

`O=C1CCCN1[C@@H](c1ccccn1)[C@H](OCCF)c1ccccc1` (racemic) [Example 104]: the pIC50 was 5.17.

Take `N#Cc1ccc(O[C@H](c2cc(F)cc(F)c2)[C@H](c2ccc(F)cc2)N2CCCC2=O)cc1` (racemic) [Example 106]: the pIC50 was 5.08.

Consider `N#Cc1ccc(O[C@H](c2ccc(F)c(F)c2)[C@H](c2ccc(F)cc2)N2CCCCC2=O)cc1` (racemic) [Example 107], for which the pIC50 is 5.02.

Regarding `N#Cc1ccc(O[C@H](c2ccc(OC(F)(F)F)cc2)[C@H](c2ccc(F)cc2)N2CCCC2=O)cc1` (racemic) [Example 108], the pIC50 was 5.05.

Take `N#Cc1ccc(O[C@@H](c2ccnc3ccccc23)[C@H](c2ccc(F)cc2)N2CCCC2=O)cc1` (racemic) [Example 109]: the pIC50 is 5.02.

With `COc1ccc([C@@H](Oc2ccc(C(C)=O)cc2)[C@H](c2ccc(F)cc2)N2CCCC2=O)cc1` (racemic) [Example 110], the pIC50 is 5.01.

`N#Cc1ccc(O[C@H](c2ccc(F)c(F)c2)[C@H](c2ccc(F)cc2)N2CCCS2(=O)=O)cc1` (racemic) [Example 112]: the pIC50 is around 5.00.

Take `O=C1CCCN1[C@@H](c1ccc(F)cc1)[C@H](Oc1ccccn1)c1ccc(F)c(F)c1` (racemic) [Example 114]: the pIC50 was around 5.00.

With `N#Cc1ccc(O[C@H](c2ccc(F)c(F)c2)[C@H](c2cccnc2)N2CCCC2=O)cc1` (racemic) [Example 115], the pIC50 is around 5.00.

Turning to `N#Cc1ccc(O[C@H](c2ccc(C(F)(F)F)cc2)[C@H](c2ccc(F)cc2)N2CCCC2=O)cc1` (racemic) [Example 116], the pIC50 is around 5.00.

Consider `O=C1CCCN1[C@@H](c1ccc(F)cc1)[C@H](OCC1CC1)c1ccc(F)cc1` (racemic) [Example 117], for which the pIC50 is 6.52.

On to `O=C1CCCCN1[C@@H](c1ccc(F)cc1)[C@H](OCCCC(F)(F)F)c1cccnc1` (racemic) [Example 118], for which the pIC50 is 6.10.

Turning to `O=C1CCCN1[C@@H](c1cccc2cccnc12)[C@H](OCC1CC1)c1cccnc1` (racemic) [Example 119], the pIC50 is 6.10.

As to `CCCO[C@H](c1ccccc1)[C@H](c1ccccc1)N1CCCS1(=O)=O` [Example 7, (1S,2R)-2-(1,2-Diphenyl-2-propoxyethyl)isothiazolidine-1,1-dioxide], the pIC50 is 6.22.

For `CC(OCC1CC1)(c1ccccc1)C(c1ccccc1)N1CCCC1=O` (stereo not drawn) [Example 8, 1-(2-Cyclopropylmethoxy-1,2-diphenylpropyl)pyrrolidin-2-one], the pIC50 is 5.92.

With `CCCO[C@H](c1ccccc1)[C@H](c1ccccc1)N1CCCC1=O` [Example 15], the pIC50 is 6.80.

As for `CCCO[C@@H](c1ccccc1)[C@@H](c1ccccc1)N1CCCC1=O` [Example 18], the pIC50 is 6.40.

As for `CCCOC(c1ccc(OC)cc1)C(c1ccccc1)N1CCCC1=O` (stereo not drawn) [Example 23], the pIC50 is 6.19.

Regarding `O=S1(=O)CCCN1[C@H](c1ccccc1)[C@@H](OCC1CC1)c1ccccc1` [Example 52], the pIC50 is 5.70.

As for `CCCO[C@@H](c1ccccc1)[C@@H](c1ccccc1)N1CCCS1(=O)=O` [Example 54], the pIC50 was 5.77.

Take `O=C1CCCCN1[C@H](c1ccccc1)[C@@H](OCC1CC1)c1ccccc1` [Example 74]: the pIC50 was 5.85.

Turning to `CO[C@H](c1ccccc1)[C@H](c1ccccc1)N1CCCC1=O` [Example 85], the pIC50 was 5.44.

Turning to `COc1ccc(CO[C@@H](c2ccccc2)[C@@H](c2ccccc2)N2CCCCC2=O)cc1` [Example 103], the pIC50 is 5.18.

The values are drawn from patent publication US7825264B2, “Substituted heterocycles, their use as medicament, and pharmaceutical preparations comprising them” (sanofi-aventis, priority 2005, dated 2010).
